Experimental data taken from ChEMBL document CHEMBL1132059, “Antitumor agents 187: synthesis and cytotoxicity of substituted 8,8-dimethyl-2H,8H-pyrano[6,5-h]quinoline-2-one and related compounds” (1999).
≈ marks a conversion by molar mass, not a printed value. Calls of active or inactive are those of the source. The rule behind the calls is not given here.

Experiments:
A549 = assay: Cytotoxic activity against human lung carcinoma (A-549) cell line; format: functional; details: read-out: ED50 (the source's name)
CAKI-1 [1] = assay: Cytotoxic activity against human renal cancer (CAKI-1) cell line; format: functional; details: read-out: ED50 (the source's name)
HCT-8 [2] = assay: Cytotoxic activity against human ileocecal carcinoma (HCT-8) cell line; format: functional; details: read-out: ED50 (the source's name)
KB = assay: Cytotoxic activity against human epidermoid carcinoma of the nasopharynx (KB) cell line; format: functional; details: read-out: ED50 (the source's name)
MCF7 = assay: Cytotoxic activity against human breast cancer (MCF-7) cell line; format: functional; details: read-out: ED50 (the source's name)
1A9 = assay: Cytotoxic activity against human ovarian cancer (1A9) cell line; format: functional; details: read-out: ED50 (the source's name)
CAKI-1 [3] = assay: Cytotoxic activity against human renal cancer (CAKI-1) cell line; NA=Not active; format: functional, cell-based
HCT-8 [4] = assay: Cytotoxic activity against human ileocecal carcinoma (HCT-8) cell line; NA=Not active; format: functional, cell-based
CAKI-1 [5] = assay: Compound was tested for in vitro growth inhibition of human […] cancer CAKI-1 cell line; format: functional
MDA-MB-435 = assay: Compound was tested for in vitro growth inhibition of human breast cancer MDA-MB-435 cell line; format: functional
NCI-H226 = assay: Compound was tested for in vitro growth inhibition of human non-small cell lung cancer cell line NCI-H226; format: functional
OVCAR-3 = assay: Compound was tested for in vitro growth inhibition of human ovarian cancer OVCAR-3 cell line; format: functional
SF-295 = assay: Compound was tested for in vitro growth inhibition of human […] SF-295 cell line; format: functional
SK-MEL-28 = assay: Compound was tested for in vitro growth inhibition of human melanoma SK-MEL-28 cell line; format: functional
PD-145 = assay: Compound was tested for in vitro growth inhibition of human prostate cancer PD-145 cell line; format: functional
HL-60 = assay: Compound was tested for in vitro growth inhibition of human leukemia cell line HL60; format: functional
COLO 205 = assay: Compound was tested for in vitro growth inhibition of human colon cancer COLO 205 cell line; format: functional
HCT-116 = assay: Compound was tested for in vitro growth inhibition of human colon cancer HCT116 cell line; format: functional

Row | GI50 (MDA-MB-435) | GI50 (NCI-H226) | GI50 (OVCAR-3) | GI50 (SK-MEL-28) | GI50 (HL-60) | GI50 (COLO 205) | GI50 (HCT-116) | SMILES | EC50 (A549) | EC50 (CAKI-1 [1]) | EC50 (HCT-8 [2]) | EC50 (KB) | EC50 (MCF7) | EC50 (1A9) | ED50 (CAKI-1 [3]) | ED50 (HCT-8 [4]) | GI50 (CAKI-1 [5]) | GI50 (SF-295) | GI50 (PD-145)
1 |  |  |  |  |  |  |  | Cc1cc2c(C)c(C)c(O)nc2c2c1OC(C)(C)C=C2 | 41 µg/mL (≈ 152 µM) | 43 µg/mL (≈ 160 µM) | 41 µg/mL (≈ 152 µM) | 37 µg/mL (≈ 137 µM) | 38 µg/mL (≈ 141 µM) |  |  |  |  |  | 
2 |  |  |  |  |  |  |  | CC1(C)C=Cc2c(ccc3c(-c4ccccc4)cc(O)nc23)O1 | 36.3 µg/mL (≈ 120 µM) | > 40 µg/mL | 28 µg/mL (≈ 92.3 µM) | > 40 µg/mL | 30 µg/mL (≈ 98.9 µM) | 10 µg/mL (≈ 33 µM) |  |  |  |  | 
3 |  |  |  |  |  |  |  | Cc1cc(=O)n(C(=O)OC(C)(C)C)c2c3c(ccc12)OC(C)(C)C=C3 | 4.3 µg/mL (≈ 12.6 µM) | 4.5 µg/mL (≈ 13.2 µM) | 3.6 µg/mL (≈ 10.5 µM) | 2.5 µg/mL (≈ 7.32 µM) | 2.4 µg/mL (≈ 7.03 µM) |  |  |  |  |  | 
4 |  |  |  |  |  |  |  | Cc1cc(S)nc2c3c(ccc12)OC(C)(C)C=C3 | 30.3 µg/mL (≈ 118 µM) |  | 28.8 µg/mL (≈ 112 µM) | 23 µg/mL (≈ 89.4 µM) | 13.8 µg/mL (≈ 53.6 µM) | 12 µg/mL (≈ 46.6 µM) | inactive |  |  |  | 
5 |  |  |  |  |  |  |  | CCCc1cc(O)nc2c3c(ccc12)OC(C)(C)C=C3 | > 40 µg/mL |  |  | > 40 µg/mL | > 40 µg/mL | > 40 µg/mL | inactive | inactive |  |  | 
6 |  |  |  |  |  |  |  | Cc1c(O)nc2c3c(ccc2c1C)OC(C)(C)C=C3 | 25 µg/mL (≈ 97.9 µM) | 35.5 µg/mL (≈ 139 µM) | 32 µg/mL (≈ 125 µM) | 23 µg/mL (≈ 90.1 µM) | 19 µg/mL (≈ 74.4 µM) |  |  |  |  |  | 
7 |  |  |  |  |  |  |  | CC1(C)C=Cc2c(ccc3ccc(O)nc23)O1 | 18 µg/mL (≈ 79.2 µM) | > 40 µg/mL | 19.3 µg/mL (≈ 84.9 µM) | 13.1 µg/mL (≈ 57.6 µM) | 14.7 µg/mL (≈ 64.7 µM) | 5.8 µg/mL (≈ 25.5 µM) |  |  |  |  | 
8 | 1.74 µM | > 100 µM | 6.03 µM | > 100 µM | 0.427 µM | 2.75 µM | 4.9 µM | Cc1cc(O)nc2c3c(ccc12)OC(C)(C)C=C3 | 2.2 µg/mL (≈ 9.12 µM) | 2.5 µg/mL (≈ 10.4 µM) | 1.7 µg/mL (≈ 7.05 µM) | 1.6 µg/mL (≈ 6.63 µM) | 1.7 µg/mL (≈ 7.05 µM) |  |  |  | 6.17 µM | 30.2 µM | 3.63 µM
